Laboratory results published in publication PMC9921896 (Molecules, 2023).

Columns and labels:
[1] = Substrate depletion assay in cryopreserved human hepatocytes (CPHH); format: in vitro ADME; conditions: pooled cryopreserved human hepatocytes; for half-life at 1 µM: pH 7.3, test conc. 1.0E-06 M (Table S4); for half-life / hepatocyte CLint: pH 7.3, test conc. 1×10^−6 M, n = 3
Procedure: Microsomal stability was determined for the TbB ligands by monitoring the presence of compound after incubation in CPHH and HLM, as shown in Figure 7 and Figure S18 of the Supporting Information. […] Such an observation with NCEs is common because, with HLM, NADPH is used as a cofactor, thereby focusing mainly on phase 1 oxidation pathways such as P450 metabolism. Although additional enzymes, such as UDP-glucuronosyltransferase (UGTs), are present in HLM, the lack of the associated necessary cofactors prevents them from being functionally active (e.g., uridine diphosphate glucuronic acid (UDPGA)). In contrast, all the three TbB ligands metabolized in cryopreserved hepatocytes (Figure 7). […] The reason could be that hepatocytes have all the necessary enzymes and cofactors for the metabolic processes. Since they contain the complete set of oxidative/reductive, hydrolytic, and conjugative drug metabolizing enzymes found in the liver, they are regarded as the gold standard. Therefore, they are preferred in vitro options for expressing metabolic stability as substrate depletion, total metabolic clearance, and T 1/2 [29].
From the plot shown in Figure S18 of the Supporting Information, it can be inferred that the TbB ligands undergo slow biotransformation in HLM. Such high metabolic stability may result in drug interactions leading to toxicity of the parent compound. On the contrary, TbB ligands are undergoing rapid biotransformation in CPHH (Figure 7), and this may lead to generation of metabolites that are either toxic, active, or nonactive. Metabolic stability is typically expressed by in vitro half-life T 1/2 and intrinsic clearance (CLint) terms. Intrinsic clearance (CLint) is measured using the substrate depletion method. It describes the maximum liver (microsomal proteins or hepatocytes) activity towards a compound not affected by other physiological factors such as hepatic blood flow and drug binding within the blood matrix. T 1/2 is used to express the time for the 50% disappearance of the parent compound. A possible explanation for the difference in metabolic stability might be that the TbB ligands bind to microsomes during incubation. This can result in decreased free TbB ligand levels available to interact with metabolizing enzymes, reducing apparent intrinsic clearance values.
The test compound stability in a pooled human cryopreserved hepatocytes was tested after thawing, washing, and resuspending the cryopreserved hepatocytes in Krebs–Heinslet buffer (pH 7.3). The onset of reaction happens by the addition of the test compound into cell suspension and incubated for 0, […], 1, 1.5, and 2 h, respectively, at 37 °C/5% CO 2 . The reaction is terminated in the incubation mixture by the addition of acetonitrile. After thorough sample mixing, the sample was completely transferred to another 96-well plate and centrifuged, followed by HPLC-MS/MS analysis of supernatant. Four compounds as reference, namely, propranolol, a relatively stable and readily metabolizing flurazepam, naloxone, and HFC (7-hydroxy-4-trifluoromethyl-coumarin) in human hepatocytes were included in each assay. Data analysis was performed as mentioned above and the intrinsic clearance (CLint) is calculated from the half-life using the following equation. CLint(μL/min/millioncells)=0.693/T1/2×CellDensity.

[2] = molecular target: T1, CYP1A2 (Homo sapiens, UniProt P05177); assay: CYP inhibition assay in HLM, single concentration; format: biochemical; conditions: human liver microsomes, probe Phenacetin, n = 3, read-out: % Inhibition (CYP 1A2)
T1 construct: Using HLM as the enzyme source; from tissue; host or cells: human liver microsomes
T1 sequence (P05177 1-516): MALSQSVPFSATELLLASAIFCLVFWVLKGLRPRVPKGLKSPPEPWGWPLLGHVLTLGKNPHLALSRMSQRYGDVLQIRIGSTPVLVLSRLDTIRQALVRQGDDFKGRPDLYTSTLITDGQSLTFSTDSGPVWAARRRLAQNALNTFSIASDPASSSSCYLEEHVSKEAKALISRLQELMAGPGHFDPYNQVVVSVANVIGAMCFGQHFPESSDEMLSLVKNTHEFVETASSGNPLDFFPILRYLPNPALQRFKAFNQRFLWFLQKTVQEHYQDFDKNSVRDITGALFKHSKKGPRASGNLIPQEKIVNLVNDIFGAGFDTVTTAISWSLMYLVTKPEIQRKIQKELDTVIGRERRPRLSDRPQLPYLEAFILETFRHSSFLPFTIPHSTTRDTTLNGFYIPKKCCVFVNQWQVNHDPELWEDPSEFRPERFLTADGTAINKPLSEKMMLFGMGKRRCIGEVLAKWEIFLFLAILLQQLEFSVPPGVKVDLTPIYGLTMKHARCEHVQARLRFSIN
Procedure: (§1) The regulatory bodies and pharmaceutical firms are quite concerned about CYP inhibition. Therefore, medicinal chemists often change the lead structure to decrease CYP inhibition. If left uncorrected, it can cause DDIs, enhanced drug concentration, and, thus, toxicity.
(§2) Using HLM as the enzyme source, the CYP inhibition potential was employed to assess the inhibitory effect of the TbB ligands on the CYP1A2, 2B6, 2C8, 2C9, 2C19, and 2D6 3A4 isoforms. Phenacetin (CYP1A2, […]), tolbutamide (CYP2C9, 20 mM), bupropion (CYP2B6, […]), mephenytoin (CYP2C19, […]), midazolam (CYP3A4, 5 mM), amodiaquine (CYP2C8, 0.02 mM), and dextromethorphan (CYP2D6, 5 mM) were used as probe substrates. The test substance included TbB ligand (final concentrations of […] for each) and HLMs (final concentration of 0.1 mg protein per mL), with or without 1.0 mM NADPH. The reaction was started by adding pre-incubated 25 μ L of NADPH into all wells and incubate at 37 °C for 10 min for 3A4 and 20 min for remaining all isoforms. The reaction was stopped by adding 100 μ L of stop solution to all wells. The samples were centrifuged at 4000 rpm for 10 min at 4 °C. Supernatant (100 μ L) was withdrawn, mixed with 200 μ L of water followed by LC-MS/MS analysis.

[3] = molecular target: T2, CYP2C9 (Homo sapiens, UniProt P11712); assay: CYP inhibition assay in HLM, single concentration; format: biochemical; conditions: human liver microsomes, probe Tolbutamide, n = 3, read-out: % Inhibition (CYP 2C9)
T2 construct: Using HLM as the enzyme source; from tissue; host or cells: human liver microsomes
Procedure: as §1, §2

[4] = molecular target: T3, CYP3A4 (Homo sapiens, UniProt P08684); assay: CYP inhibition assay in HLM, single concentration; format: biochemical; conditions: human liver microsomes, probe Midazolam, n = 3, read-out: % Inhibition (CYP 3A4)
T3 construct: Using HLM as the enzyme source; from tissue; host or cells: human liver microsomes
Procedure: as §1, §2

T3 sequence (P08684 whole entry): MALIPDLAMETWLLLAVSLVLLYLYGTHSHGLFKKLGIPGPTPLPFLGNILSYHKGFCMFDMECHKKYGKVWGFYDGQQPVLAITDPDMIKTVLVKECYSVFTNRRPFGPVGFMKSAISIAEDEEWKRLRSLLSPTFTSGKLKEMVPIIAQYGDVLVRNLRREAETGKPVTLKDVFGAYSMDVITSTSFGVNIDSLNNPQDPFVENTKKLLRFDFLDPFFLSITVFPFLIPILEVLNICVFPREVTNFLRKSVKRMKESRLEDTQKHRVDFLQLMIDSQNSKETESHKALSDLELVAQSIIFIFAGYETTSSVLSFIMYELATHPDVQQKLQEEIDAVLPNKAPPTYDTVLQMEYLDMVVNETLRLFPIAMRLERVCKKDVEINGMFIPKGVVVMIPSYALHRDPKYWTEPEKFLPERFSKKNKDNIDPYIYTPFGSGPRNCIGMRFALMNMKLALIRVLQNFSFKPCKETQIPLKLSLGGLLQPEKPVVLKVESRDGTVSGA
T2 sequence (P11712 whole entry): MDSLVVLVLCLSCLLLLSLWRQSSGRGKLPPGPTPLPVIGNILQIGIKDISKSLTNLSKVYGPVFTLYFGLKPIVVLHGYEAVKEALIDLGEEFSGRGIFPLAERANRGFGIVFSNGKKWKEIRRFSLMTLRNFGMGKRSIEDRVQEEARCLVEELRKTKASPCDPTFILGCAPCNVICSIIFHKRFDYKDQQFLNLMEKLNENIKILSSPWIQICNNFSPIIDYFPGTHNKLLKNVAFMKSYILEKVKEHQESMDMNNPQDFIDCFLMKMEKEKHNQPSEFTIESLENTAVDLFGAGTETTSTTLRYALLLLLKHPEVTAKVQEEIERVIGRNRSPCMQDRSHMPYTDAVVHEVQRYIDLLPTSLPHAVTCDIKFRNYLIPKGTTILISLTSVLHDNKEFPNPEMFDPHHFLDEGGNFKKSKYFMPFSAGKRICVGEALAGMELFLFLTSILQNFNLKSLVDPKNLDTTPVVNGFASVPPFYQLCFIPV

| Structure (SMILES) | half-life at 1 µM [1] [min] | half-life [1] [min] | hepatocyte CLint [1] [µL/min/1e6 cells] | inhibition at 20 min, 10 µM [2] [%] | inhibition at 20 min, 10 µM [3] [%] | inhibition at 10 min, 10 µM [4] [%] |
| --- | --- | --- | --- | --- | --- | --- |
| COc1cc(-c2nnn(-c3cc(OC)c(O)c(OC)c3)n2)cc(OC)c1O [223-2] | 33 | 33 | 29.8 | 33 | 68 | -6 |
| Cc1cc(-c2nnn(-c3cc(C)c(O)c(C)c3)n2)cc(C)c1O [223-3] | 54 | 54 | 18.4 | 40 | 82 | 96 |
| Oc1ccc(-c2nnn(-c3ccc(O)cc3)n2)cc1 [223-10] | 36 | 36 | 27.8 | 30 | 90 | 22 |
